Consider 41 molecules from US12221453B2, “Substituted pyrazolo[5′,1′:2,3]pyrimido[5,4-b][1,4]oxazines as TYK2 inhibitors” (TAKEDA PHARMACEUTICAL COMPANY LIMITED, priority 2018, dated 2025).

For orientation: IC50 means the concentration needed to halve the response being measured. A high value points to weaker potency in that assay.

A value given as a limit tells only on which side of the number the result lay.

For one test, the target named is JAK2 (Invitrogen) kinase (Homo sapiens (Human), UniProt O60674). Description: JAK2 radioactive kinase assay. The format is biochemical. As to conditions: compound at 10 μM; ATP at 10 μM; substrate poly[Glu:Tyr] (4:1). The protocol: Peptide substrate, [[…]], (20 μM) was prepared in reaction buffer (20 mM Hepes pH 7.5, 10 mM MgCl2, 1 mM EGTA, 0.02% Brij35, 0.02 mg/mL BSA, 0.1 mM […], 2 mM DTT, 1% DMSO. TYK2 (Invitrogen) kinase was added, followed by compounds in DMSO. 33PATP was added to initiate the reaction in ATP at 10 μM. Kinase reaction was incubated for 120 min at room temp and reactions were spotted onto P^81 ion exchange paper (Whatman #3698-915), and then washed extensively in 0.75% phosphoric acid, prior to reading the radioactivity counts. For JAK2 (Invitrogen) kinase assay the peptide substrate poly[Glu:Tyr] (4:1), 0.2 mg/mL was used, in the reaction carried out the same as for TYK2.
JAK2 (Invitrogen) kinase, sequence (O60674 whole entry): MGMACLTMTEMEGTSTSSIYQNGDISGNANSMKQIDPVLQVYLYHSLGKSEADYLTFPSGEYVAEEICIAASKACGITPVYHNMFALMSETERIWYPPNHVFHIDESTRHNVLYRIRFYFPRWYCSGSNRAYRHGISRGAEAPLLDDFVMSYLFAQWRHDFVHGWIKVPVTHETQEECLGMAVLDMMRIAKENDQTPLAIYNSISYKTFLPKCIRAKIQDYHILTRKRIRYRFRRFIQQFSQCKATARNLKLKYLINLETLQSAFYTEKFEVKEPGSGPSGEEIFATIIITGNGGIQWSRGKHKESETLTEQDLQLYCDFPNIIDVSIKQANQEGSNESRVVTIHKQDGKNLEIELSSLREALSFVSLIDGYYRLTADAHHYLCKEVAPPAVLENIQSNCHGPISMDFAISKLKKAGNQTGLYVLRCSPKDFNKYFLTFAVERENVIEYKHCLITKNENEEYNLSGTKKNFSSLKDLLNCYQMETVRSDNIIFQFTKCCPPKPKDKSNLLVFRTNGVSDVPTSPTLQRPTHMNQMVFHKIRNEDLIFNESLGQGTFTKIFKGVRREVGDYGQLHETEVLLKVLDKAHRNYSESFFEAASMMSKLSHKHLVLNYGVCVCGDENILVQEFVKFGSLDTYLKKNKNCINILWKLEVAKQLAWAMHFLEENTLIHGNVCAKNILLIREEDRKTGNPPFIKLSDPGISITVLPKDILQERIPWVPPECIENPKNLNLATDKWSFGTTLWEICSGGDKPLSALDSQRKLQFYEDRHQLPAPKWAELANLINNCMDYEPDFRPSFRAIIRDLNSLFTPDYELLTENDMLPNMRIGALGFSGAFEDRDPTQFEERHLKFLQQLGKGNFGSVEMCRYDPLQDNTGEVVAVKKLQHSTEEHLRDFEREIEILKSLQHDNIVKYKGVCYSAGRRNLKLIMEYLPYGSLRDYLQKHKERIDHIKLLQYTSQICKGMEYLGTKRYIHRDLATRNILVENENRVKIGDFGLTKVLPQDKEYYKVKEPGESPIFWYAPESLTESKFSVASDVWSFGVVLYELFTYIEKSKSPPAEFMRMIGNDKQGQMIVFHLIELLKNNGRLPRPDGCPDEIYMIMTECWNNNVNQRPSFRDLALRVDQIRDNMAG
With `CNc1cc(Nc2cccn([C@H]3CC[C@H](OC)CC3)c2=O)nc2c(C(=O)N[C@@H]3CC[C@@H](OC)C3)cnn12` [I-69, 5-((1-((1r,4R)-4-Methoxycyclohexyl)-2-oxo-1,2-dihydropyridin-3-yl)amino)-N-((1R,3R)-3-methoxycyclopentyl)-7-(methylamino)pyrazolo[1,5-a]pyrimidine-3-carboxamide], the “JAK2 (% Inhibition at 10 μM)” value is “A (had a percent inhibition at 10 μM lower than 50)”.
As for `CNc1cc(Nc2cccn([C@H]3CC[C@H](OC)CC3)c2=O)nc2c(C(=O)N[C@H]3CC[C@H](OC)C3)cnn12` [I-70, 5-((1-((1r,4S)-4-Methoxycyclohexyl)-2-oxo-1,2-dihydropyridin-3-yl)amino)-N-((1S,3S)-3-methoxycyclopentyl)-7-(methylamino)pyrazolo[1,5-a]pyrimidine-3-carboxamide], the “JAK2 (% Inhibition at 10 μM)” value is listed as “A (had a percent inhibition at 10 μM lower than 50)”.

A further test relates to IL-12 induced STAT4 phosphorylation mediated by TYK2/JAK2. Kind of test: IL-12 induced pSTAT4 in human PBMC. The format is cell-based. As to conditions: 1 hr compound, 1.7 ng/mL IL-12 for 30 minutes. The gist of the method: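 Thawed human PBMC were pre-incubated with compound for 1 hr at 37 °C (0.1% DMSO), then stimulated with 1.7 ng/mL IL-12 for 30 minutes. Phospho-STAT4 and total STAT4 were measured in cell lysates by MSD.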
Regarding `CNc1cc(-c2cn([C@@H]3CCOC[C@@H]3OC)c3ncccc23)nc2c(C(=O)N[C@H]3CC[C@@H]3OC)cnn12` [Compound I-669], the IC50 is less than 0.1 µM.
Still for that read-out and setting: the same measure for `CNc1cc(Nc2cccn([C@@H]3C[C@H]3F)c2=O)nc2c(C(=O)N[C@@H]3CC[C@H]3OC)cnn12` [I-53, 5-((1-((1R,2R)-2-Fluorocyclopropyl)-2-oxo-1,2-dihydropyridin-3-yl)amino)-N-((1R,2R)-2-methoxycyclobutyl)-7-(methylamino)pyrazolo[1,5-a]pyrimidine-3-carboxamide]: less than 0.1 µM; for `CNc1cc(-c2cn([C@H]3C[C@@H](O)C3)c3ncccc23)nc2c(C(=O)NC3CCC3(F)F)cnn12` (some centres unmarked) [Compound I-677]: less than 0.1 µM.
Still for that read-out and setting: under `CNc1cc(-c2cn([C@@H]3COC[C@@H]3F)c3ncccc23)nc2c(C(=O)N[C@H]3CC[C@@H]3OC)cnn12` [Compound I-622] stands less than 0.1 µM.
For `O=C(NC1CC[C@@H]1F)c1cnn2c3c(c(-c4cn([C@H]5C[C@H](O)C5)c5ncccc45)nc12)OCCN3` (some centres unmarked) [Compound I-756], the IC50 was less than 0.1 µM.
The same measure, in the same setting: the same measure for `CNc1cc(Nc2cccn([C@@H]3CCOC[C@@H]3OC)c2=O)nc2c(C(=O)N[C@@H]3CC[C@H]3F)cnn12` [Compound I-217]: less than 0.1 µM; for `CNc1cc(-c2cnc3n([C@@H]4CCOC[C@H]4O)cccc2-3)nc2c(C(=O)N[C@H]3CC[C@@H]3F)cnn12` [Compound I-848]: less than 0.1 µM; for `CNc1cc(Nc2cccn(C3CCOCC3)c2=O)nc2c(C(=O)NC3CCC3)cnn12` [Compound I-143]: less than 0.1 µM.
Still for that read-out and setting: the same measure for `CNc1cc(-c2cn([C@H]3C[C@@H](O)C3)c3ncccc23)nc2c(C(=O)N[C@H]3CC[C@@H]3F)cnn12` [Compound I-511]: less than 0.1 µM; for `CNc1cc(Nc2cccn(C(C)C)c2=O)nc2c(C(=O)NC3CC[C@@H]3F)cnn12` (mixture of isomers) [Compound I-145]: less than 0.1 µM.
Still for that read-out and setting: under `CNc1cc(-c2cnc3n([C@@H]4COC[C@H]4OC)cccc2-3)nc2c(C(=O)NC3CC[C@@H]3F)cnn12` (some centres unmarked) [Compound I-835] stands less than 0.1 µM; under `CNc1cc(-c2cnc3n(CCCN4CCOCC4)cccc2-3)nc2c(C(=O)N[C@H]3CC[C@@H]3OC)cnn12` [Compound I-990], less than 0.1 µM; under `CNc1ccc(-c2cc(NC)n3ncc(C(=O)N[C@H]4CC[C@@H]4F)c3n2)n2ccnc12` [Compound I-481], less than 0.1 µM.
The molecule `CNc1cc(-c2cn([C@@H]3COC[C@H]3OC)c3ccccc23)nc2c(C(=O)N[C@H]3CC[C@H]3O)cnn12` [Compound I-787] yielded an IC50 of less than 0.1 µM.
Still for that read-out and setting: under `CNc1cc(-c2cn([C@@H]3COC[C@@H]3F)c3ncccc23)nc2c(C(=O)N[C@H]3CC[C@H]3O)cnn12` [Compound I-571] stands less than 0.1 µM; under `CNc1cc(-c2cn([C@@H]3CCN(C)C3)c3ncccc23)nc2c(C(=O)NC3CCC3(F)F)cnn12` (some centres unmarked) [Compound I-686], less than 0.1 µM; under `CNc1cc(-c2cn([C@@H]3CCOC[C@H]3O)c3ncccc23)nc2c(C(=O)N[C@H]3CC[C@@H]3F)cnn12` [Compound I-538], less than 0.1 µM.
Still for that read-out and setting: under `CNc1cc(Nc2cccn([C@@H]3CCC[C@H](C#N)C3)c2=O)nc2c(C(=O)N[C@H]3CCC3(F)F)cnn12` [Compound I-328] stands less than 0.1 µM; under `CNc1cc(Nc2cccn(C3CCOCC3)c2=O)nc2c(C(=O)NC3CCC3(F)F)cnn12` (centres unmarked) [Compound I-309], less than 0.1 µM.
Still for that read-out and setting: the same measure for `CNc1cc(Nc2cccn(-c3ccccn3)c2=O)nc2c(C(=O)NC3CCC3(F)F)cnn12` (centres unmarked) [Compound I-318]: less than 0.1 µM; for `CNc1cc(Nc2cccn([C@H]3C[C@H](F)C3)c2=O)nc2c(C(=O)NC3CC[C@@H]3F)cnn12` (some centres unmarked) [Compound I-164]: less than 0.1 µM.
The molecule `CNc1cc(-c2cnc3n([C@H]4COC[C@@H]4OC)cccc2-3)nc2c(C(=O)N[C@@H]3CC[C@@H]3F)cnn12` [Compound I-840] came in with an IC50 of less than 0.1 µM.
Molecule `CNc1cc(Nc2cccn([C@H]3C[C@H](F)C3)c2=O)nc2c(C(=O)NC3CCC3(F)F)cnn12` (some centres unmarked) [Compound I-283] gave an IC50 of less than 0.1 µM.
Same read-out and setting: the same measure for `CNc1cc(Nc2cccn([C@H]3CCC[C@@H](C#N)C3)c2=O)nc2c(C(=O)N[C@@H]3CC[C@H]3OC)cnn12` [Compound I-258]: less than 0.1 µM.
Same read-out and setting: the same measure for `CNc1cc(Nc2cccn(C3COC3)c2=O)nc2c(C(=O)NC3CC[C@H]3F)cnn12` (some centres unmarked) [Compound I-160]: less than 0.1 µM.
In turn, `CNc1cc(-c2cn([C@@H]3COC[C@H]3O)c3ncccc23)nc2c(C(=O)NC3CCC3(F)F)cnn12` (some centres unmarked) [Compound I-692] registered an IC50 of less than 0.1 µM.
Same read-out and setting: under `CNc1cc(-c2cn([C@@H]3CCOC[C@@H]3OC)c3ncccc23)nc2c(C(=O)N[C@H]3CC[C@@H]3F)cnn12` [Compound I-798] stands less than 0.1 µM; under `CNc1cc(-c2cn([C@H]3CCOC3)c3ncccc23)nc2c(C(=O)N[C@H]3CC[C@@H]3OC)cnn12` [Compound I-613], less than 0.1 µM; under `CNc1cc(Nc2cccn([C@H]3C[C@H](OC)C3)c2=O)nc2c(C(=O)NC3CC[C@@H]3F)cnn12` (mixture of isomers) [Compound I-176], less than 0.1 µM.
Same read-out and setting: under `CNc1cc(Nc2cccn([C@H]3C[C@H](OC)C3)c2=O)nc2c(C(=O)NC3CCC3)cnn12` [Compound I-141] stands less than 0.1 µM.
Take `CNc1cc(-c2cn([C@H]3COC[C@@H]3OC)c3ncccc23)nc2c(C(=O)NC3CC[C@@H]3OC)cnn12` (some centres unmarked) [Compound I-633]: the IC50 is less than 0.1 µM.
On to `CNc1cc(-c2cn([C@@H]3CCOC3)c3ncccc23)nc2c(C(=O)N[C@H]3CC[C@@H]3OC)cnn12` [Compound I-610], for which the IC50 is less than 0.1 µM.
`CNc1cc(Nc2cccn([C@H]3CC[C@H]3O)c2=O)nc2c(C(=O)N[C@H]3CCC3(F)F)cnn12` [Compound I-287] came in with an IC50 of less than 0.1 µM.
The same measure, in the same setting: the same measure for `CNc1cc(Nc2cccn([C@H]3CC[C@H](OC)CC3)c2=O)nc2c(C(=O)N[C@H]3C[C@@H]3OC)cnn12` [I-32, 5-((1-((1r,4S)-4-Methoxycyclohexyl)-2-oxo-1,2-dihydropyridin-3-yl)amino)-N-((1S,2S)-2-methoxycyclopropyl)-7-(methylamino)pyrazolo[1,5-a]pyrimidine-3-carboxamide]: less than 0.1 µM.
The same measure, in the same setting: the same measure for `CNc1cc(-c2cn([C@H]3CC3(F)F)c3ncccc23)nc2c(C(=O)N[C@H]3CC[C@H]3O)cnn12` [Compound I-552]: less than 0.1 µM; for `CNc1cc(-c2cn([C@H]3CCC[C@H]3F)c3ncccc23)nc2c(C(=O)N[C@H]3COC[C@H]3O)cnn12` [Compound I-722]: less than 0.1 µM.
The same measure, in the same setting: under `CC(C)n1cc(-c2nc3c(C(=O)N[C@H]4CC[C@H]4O)cnn3c3c2OCCN3)c2cccnc21` [Compound I-754] stands less than 0.1 µM; under `CNc1cc(Nc2cccn(-c3ccccn3)c2=O)nc2c(C(=O)N[C@H]3CC[C@@H]3F)cnn12` [Compound I-201], less than 0.1 µM; under `CNc1cc(-c2cn([C@@H]3COC[C@H]3OC)c3ccccc23)nc2c(C(=O)NC3CC[C@@H]3OC)cnn12` (some centres unmarked) [Compound I-744], less than 0.1 µM.
